For data set [1] the following is noted: porous particles, Andersen cascade Impaction; cited from earlier work.
For data set [2] the following is noted: cited from earlier work.
For data set [3] the following is noted: transdermal patches; cited from earlier work.
For data set [4] the following is noted: intranasal aqueous solution with dimethyl-β-cyclodextrin, compared to the IV route; cited from earlier work.
For data set [5] the following is noted: 0.1% w/v drug, HFA134a.
Data set [6] can be described thus: Andersen Cascade Impactor (ACI) deposition studies of HFA solution pMDIs. The format is physicochemical. Here is the method:
All impaction studies were conducted with formulations contained in cut edge anodised aluminium cans fitted with 50 μl or 100 μl valves. The studies were carried out using an Andersen Cascade Impactor (ACI) fitted with a USP XXII metal throat entry port. The ACI was operated at a flow rate of 28.3±2 l min^−1. All solution HFA formulations were discharged into the ACI through an actuator having an orifice diameter of 0.22 mm. Deposition of the drug on each ACI plate was determined by high pressure liquid chromatography (HPLC). MMAD values and corresponding geometric standard deviations (GSD) were calculated from plots of the cumulative percentage undersize of drug collected on each ACI plate (probit scale), against the upper cut off diameter for each respective ACI plate (log 10 scale).

[7] abbreviates: 0.1% w/v (50 μg/dose), 5% w/w ethanol, 0.1% w/w glycerol, HFA134a, ten shots.

Read-outs that look alike come from different tables or passages of the source.

As to 17β-Oestradiol, the fine particle fraction entry in data set [1] is recorded as “approximately 33%”. For the same compound, the peak plasma concentration in data set [2] (sublingual, 0.25 mg) was 294 pg/mL; in data set [2] (sublingual, 0.5 mg) it was 245 pg/mL; in data set [2] (sublingual, 1.0 mg), 451 pg/mL. In addition, the “time to peak plasma concentration” value in data set [2] (sublingual, 0.25, 0.5 and 1.0 mg) is no more than 1 h. Moreover, in data set [2] (sublingual, after 6 hours), the 17β-oestradiol levels result is reported as “less than 60 pg/ml”. The “mean serum oestradiol levels” value in data set [3] is 70 to 90 pg/mL. Further, in data set [4], the bioavailability result is on record as “approximately 65%”.
`C[C@]12CC[C@@H]3c4ccc(OC(=O)c5ccccc5)cc4CC[C@H]3[C@@H]1CC[C@@H]2O` [Formulation 3-Benzoate]: the Solubility entry in data set [5] (13% w/w ethanol, no glycerol) is listed as “Insoluble”.
Take `C[C@]12CC[C@@H]3c4ccc(O)cc4CC[C@H]3[C@@H]1CC[C@@H]2OC(=O)CCC1CCCC1` [Formulation 17-Cypionate]: in data set [5] (5% w/w ethanol, 0.1% w/w glycerol), the Solubility entry is on record as “Insoluble”.
Take `CCCCCCC(=O)O[C@H]1CC[C@H]2[C@@H]3CCc4cc(O)ccc4[C@H]3CC[C@]12C` [Formulation 17-Enanthate, β-oestradiol enanthate]: in data set [6] (setting [7]), the GSD is on record as 1.7, the MMAD amounted to 1.5 μm, the “fine particle dose (FPD)” value was 38.8 µg and the “fine particle fraction (FPF)” value was 78.5%.
For the compound “β-oestradiol-3,17-dipropionate [β-oestradiol 3,17-dipropionate]”, the MMAD in data set [6] (200 μg/dose (0.4% w/v), 0% w/w ethanol, HFA 134a) was 0.90 μm; in data set [6] (200 μg/dose (0.4% w/v), 2% w/w ethanol, HFA 134a) it was 1.50 μm; in data set [6] (200 μg/dose (0.4% w/v), 5% w/w ethanol, HFA 134a), 1.50 μm; in data set [6] (500 μg/dose (1% w/v), 5% w/w ethanol, HFA 134a), 1.90 μm.

The values above are taken from patent US20050209207A1, “Aerosol formulations containing esters of 3,17-dihydroxy oestratriene derivatives for pulmonary delivery” (priority 2002, published 2005).
